Measured values taken from BigSolDB 2.1.

CC(=O)N[C@@H](C)C(=O)O
solubility (mole fraction)
Settings | 283.15 K | 288.15 K | 293.15 K | 298.15 K | 303.15 K | 308.15 K | 313.15 K | 318.15 K | 323.15 K
in 2-butanone | 0.0111 | 0.0132 | 0.0161 | 0.0186 | 0.0215 | 0.026 | 0.03 | 0.0358 | 0.0437
in acetone | 0.0224 | 0.028 | 0.0329 | 0.0372 | 0.0446 | 0.0524 | 0.0638 | 0.0819 | 0.103
in acetonitrile | 0.00594 | 0.00727 | 0.00871 | 0.0114 | 0.0136 | 0.0177 | 0.0226 | 0.0312 | 0.0385
in dimethyl carbonate | 0.00223 | 0.00261 | 0.00319 | 0.00376 | 0.00449 | 0.00543 | 0.00668 | 0.00841 | 0.0103
in ethanol | 0.111 | 0.127 | 0.138 | 0.156 | 0.174 | 0.198 | 0.217 | 0.235 | 0.267
in ethyl acetate | 0.00433 | 0.00521 | 0.0062 | 0.00718 | 0.00806 | 0.00947 | 0.0112 | 0.0131 | 0.0156
in isobutanol | 0.0571 | 0.063 | 0.0718 | 0.0798 | 0.0916 | 0.107 | 0.12 | 0.132 | 0.145
in isopentanol | 0.0527 | 0.0563 | 0.0636 | 0.0713 | 0.0823 | 0.0949 | 0.108 | 0.125 | 0.139
in isopropanol | 0.0781 | 0.0901 | 0.1 | 0.113 | 0.13 | 0.148 | 0.162 | 0.175 | 0.195
in methyl acetate | 0.00578 | 0.00705 | 0.00861 | 0.00997 | 0.0114 | 0.0135 | 0.0162 | 0.0196 | 0.0242
in n-butanol | 0.0633 | 0.0707 | 0.0784 | 0.0869 | 0.0982 | 0.114 | 0.127 | 0.143 | 0.157
in n-butyl acetate | 0.00354 | 0.00382 | 0.00417 | 0.00455 | 0.00504 | 0.00573 | 0.00654 | 0.00771 | 0.00892
in n-pentanol | 0.0516 | 0.0546 | 0.0621 | 0.0695 | 0.0805 | 0.0915 | 0.106 | 0.12 | 0.137
in n-propanol | 0.0858 | 0.0937 | 0.104 | 0.118 | 0.133 | 0.153 | 0.168 | 0.186 | 0.213
in n-propyl acetate | 0.003 | 0.00352 | 0.00421 | 0.00495 | 0.00558 | 0.00642 | 0.00755 | 0.00913 | 0.0109
in sec-butanol | 0.068 | 0.0759 | 0.0892 | 0.101 | 0.113 | 0.129 | 0.144 | 0.161 | 0.175
